Measured values published in patent US9428492B2, “Secondary alcohol substituted triazoles as PDE10 inhibitors” (Merck Sharp & Dohme Corp., priority 2012, dated 2016).
Like-named read-outs stand apart in the source and are kept apart here.

Key:
[1] = molecular target: human PDE10A2 (Homo sapiens (Human), UniProt Q9Y233); assay: PDE10 fluorescence polarization (IMAP FP) inhibition assay; assay type: biochemical
Procedure: The activity of the compounds in accordance with the present invention as PDE10 inhibitors may be readily determined without undue experimentation using a fluorescence polarization (FP) methodology that is well known in the art (Huang, W., et al., J. Biomol Screen, 2002, 7: 215).
In a typical experiment the PDE10 inhibitory activity of the compounds of the present invention was determined in accordance with the following experimental method. PDE10A2 was amplified from human fetal brain cDNA (Clontech, Mountain View, Calif.) using a forward primer corresponding to nucleotides 56-77 of human PDE10A2 (Accession No. AF127480, Genbank Identifier 4894716), containing a Kozak consensus sequence, and a reverse primer corresponding to nucleotides 2406-2413 of human PDE10A2 (Accession No. AF127480, Genbank Identifier 4894716). Amplification with Easy-A polymerase (Stratagene, La Jolla, Calif.) was 95° C. for 2 minutes followed by thirty three cycles of 95° C. for 40 seconds, 55° C. for 30 seconds, and 72° C. for 2 minutes 48 seconds. Final extension was 72° C. for 7 minutes. The PCR product was TA cloned into pcDNA3.2-TOPO (Invitrogen, Carlsbad, Calif.) according to standard protocol. AD293 cells with 70-80% confluency were transiently transfected with human PDE10A2/pcDNA3.2-TOPO using Lipofectamine 2000 according to manufacturer specifications (Invitrogen, Carlsbad, Calif.). Cells were harvested 48 hours post-transfection and lysed by sonication (setting 3, 10×5 sec pulses) in a buffer containing 20 mM HEPES, 1 mM EDTA and protease inhibitor cocktail (Roche). Lysate was collected by centrifugation at 75,000×g for 20 minutes. Supernatant containing the cytoplasmic fraction was used for evaluation of PDE10A2 activity. The fluorescence polarization assay for cyclic nucleotide phosphodiesterases was performed using an IMAP® FP kit supplied by Molecular Devices, Sunnyvale, Calif. (product # R8139). IMAP® technology has been applied previously to phosphodiesterase assays (Huang, W., et al., J. Biomol Screen, 2002, 7: 215). Assays were performed at room temperature in 384-well microtiter plates with an incubation volume of 20.2 μL. Solutions of test compounds were prepared in DMSO and serially diluted with DMSO to yield 8 μL of each of 10 solutions differing by 3-fold in concentration, at 32 serial dilutions per plate. […] 0% of inhibition is determined by using DMSO (1% final concentrations).
A Labcyte Echo 555 (Labcyte, Sunnyvale, Calif.) is used to dispense 200 nL from each well of the titration plate to the 384 well assay plate. A solution of enzyme (1/1600 dilution from aliquots; sufficient to produce 20% substrate conversion) and a separate solution of FAM-labeled cAMP PDE from Molecular Devices (product # R7506), at a final concentration of 50 nM are made in the assay buffer (10 mM Tris HCl, pH 7.2, 10 mM MgCl2, 0.05% NaN3 0.01% Tween-20, and 1 mM DTT). The enzyme and the substrate are then added to the assay plates in two consecutive additions of 10 μL, and then shaken to mix. The reaction is allowed to proceed at room temperature for 30 minutes. […] The enzymatic reaction is stopped by addition of 60 μL of the binding solution to each well of the assay plates and the plates are sealed and shaken for 10 seconds. The plate was incubated at room temperature for at least one hour prior to determining the fluorescence polarization (FP). The parallel and perpendicular fluorescence of each well of the plate was measured using a Perkin Elmer EnVision™ plate reader (Waltham, Mass.).
Fluorescence polarization (mP) was calculated from the parallel (S) and perpendicular (P) fluorescence of each sample well and the analogous values for the median control well, containing only substrate (So and Po), using the following equation: Polarization (mP)=1000*(S/So−P/Po)/(S/So+P/Po).
Dose-inhibition profiles for each compound were characterized by fitting the mP data to a four-parameter equation given below.

[2] = molecular target: CYP2C9 (Homo sapiens (Human), UniProt P11712); assay: reversible inhibition of CYP2C9; assay type: in vitro ADME
[3] = molecular target: CYP3A4 (Homo sapiens (Human), UniProt P08684); assay: time-dependent inhibition (TDI) of CYP3A4; assay type: in vitro ADME
[4] = comparison table with Compounds A, B, C, read-out: PDE10 Ki

Sequence of CYP3A4 (P08684 whole entry): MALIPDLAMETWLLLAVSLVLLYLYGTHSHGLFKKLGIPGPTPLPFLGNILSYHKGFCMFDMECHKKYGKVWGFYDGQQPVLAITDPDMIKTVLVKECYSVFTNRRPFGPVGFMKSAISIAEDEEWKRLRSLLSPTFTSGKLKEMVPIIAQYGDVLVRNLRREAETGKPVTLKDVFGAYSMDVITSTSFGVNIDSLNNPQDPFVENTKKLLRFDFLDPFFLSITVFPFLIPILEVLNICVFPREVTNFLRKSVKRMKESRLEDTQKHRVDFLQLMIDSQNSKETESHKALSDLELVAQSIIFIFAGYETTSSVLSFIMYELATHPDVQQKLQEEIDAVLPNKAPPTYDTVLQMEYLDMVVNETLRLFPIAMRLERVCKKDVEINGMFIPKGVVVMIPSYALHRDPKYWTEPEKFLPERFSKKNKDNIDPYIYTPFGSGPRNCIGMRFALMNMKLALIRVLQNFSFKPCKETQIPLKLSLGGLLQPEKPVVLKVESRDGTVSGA
Sequence of human PDE10A2 (Q9Y233 267-1055): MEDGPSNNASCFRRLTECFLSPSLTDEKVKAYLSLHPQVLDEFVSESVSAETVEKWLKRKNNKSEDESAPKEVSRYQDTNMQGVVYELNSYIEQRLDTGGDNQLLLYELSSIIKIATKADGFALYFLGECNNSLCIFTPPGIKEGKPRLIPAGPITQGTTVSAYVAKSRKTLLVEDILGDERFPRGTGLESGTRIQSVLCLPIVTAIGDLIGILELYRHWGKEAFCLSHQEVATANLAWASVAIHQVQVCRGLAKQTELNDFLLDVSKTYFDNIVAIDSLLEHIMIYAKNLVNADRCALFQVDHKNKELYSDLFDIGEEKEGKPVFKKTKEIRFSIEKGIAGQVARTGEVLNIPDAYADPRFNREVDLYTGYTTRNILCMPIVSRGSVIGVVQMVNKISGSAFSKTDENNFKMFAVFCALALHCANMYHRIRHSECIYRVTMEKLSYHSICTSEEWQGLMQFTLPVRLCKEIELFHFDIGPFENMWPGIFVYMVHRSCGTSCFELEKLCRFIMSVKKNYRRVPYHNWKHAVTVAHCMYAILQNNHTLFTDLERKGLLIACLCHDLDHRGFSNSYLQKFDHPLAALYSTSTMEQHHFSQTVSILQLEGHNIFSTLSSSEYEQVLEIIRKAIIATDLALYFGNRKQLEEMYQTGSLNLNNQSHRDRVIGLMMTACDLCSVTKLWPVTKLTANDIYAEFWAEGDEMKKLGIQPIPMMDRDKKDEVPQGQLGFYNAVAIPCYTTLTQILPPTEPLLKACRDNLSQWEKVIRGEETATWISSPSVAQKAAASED
Sequence of CYP2C9 (P11712 whole entry): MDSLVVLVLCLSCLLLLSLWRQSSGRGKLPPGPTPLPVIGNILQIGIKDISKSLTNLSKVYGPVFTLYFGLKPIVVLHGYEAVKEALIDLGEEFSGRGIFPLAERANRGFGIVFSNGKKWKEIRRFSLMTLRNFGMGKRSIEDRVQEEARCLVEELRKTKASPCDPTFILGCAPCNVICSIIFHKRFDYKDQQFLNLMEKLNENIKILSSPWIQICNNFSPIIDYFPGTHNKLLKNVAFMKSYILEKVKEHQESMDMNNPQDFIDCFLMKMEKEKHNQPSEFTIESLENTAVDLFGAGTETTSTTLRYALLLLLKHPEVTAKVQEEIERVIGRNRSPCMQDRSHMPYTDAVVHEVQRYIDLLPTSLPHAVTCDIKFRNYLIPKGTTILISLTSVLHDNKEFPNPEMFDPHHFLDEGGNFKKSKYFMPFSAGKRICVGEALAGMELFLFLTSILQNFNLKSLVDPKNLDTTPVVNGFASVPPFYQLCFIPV

## Cc1nc([C@@H]2C[C@H]2c2nc3ccccc3n2C)cc(-n2nc(C)nc2[C@@H](C)O)n1 [Example 14, (R)-1-(3-methyl-1-(2-methyl-6-((1R,2R)-2-(1-methyl-1H-benzo[d]imidazol-2-yl)cyclopropyl)pyrimidin-4-yl)-1H-1,2,4-triazol-5-yl)ethanol]
[1]; [4]
  Ki: 1.1 nM
[1]; read-out: PDE10a Ki
  Ki: 1.1 nM
[2]
  IC50: > 50000 nM
[3]
  TDI CYP3A4 shift ratio: 1
[3]; result in words
  time-dependent inhibition (TDI) of the CYP3A4 enzyme: do not exhibit TDI of CYP3A4

## CO[C@@H](C)c1nc(C)nn1-c1cc([C@@H]2C[C@H]2c2nc3ccccc3n2C)nc(C)n1 [Compound B, 2-((1R,2R)-2-(6-(5-((S)-1-methoxyethyl)-3-methyl-1H-1,2,4-triazol-1-yl)-2-methylpyrimidin-4-yl)cyclopropyl)-1-methyl-1H-benzo[d]imidazole, reference compound]
[1]; [4]
  Ki: 2.1 nM
[2]
  IC50: 10500 nM
[3]
  TDI CYP3A4 shift ratio: 1
